Results reported in patent US12612409B2, “Pyrrolopyrimidines as CFTR potentiators” (Cystic Fibrosis Foundation, priority 2016, dated 2026).

Assays:
[1] = molecular target: T1, CFTR in F508del/F508del primary CF hBE cells (Homo sapiens, UniProt P13569, DEL508-508); assay: Ussing chamber electrophysiology assay of CFTR potentiation in F508del/F508del CF bronchial epithelial cells (27° C.); assay type: cell-based
T1 construct: Primary cystic fibrosis human bronchial epithelial (CF hBE) cells were expanded and cultured; endogenous in cells; host or cells: primary CF human bronchial epithelial cells, genotype F508del/F508del
From the text: • SHELXTL, Version 5.1, Bruker AXS, 1997. • PLATON, A. L. Spek, J. Appl. Cryst. 2003, 36, 7-13. • MERCURY, C. F. Macrae, P. R. Edington, P. McCabe, E. Pidcock, G. P. Shields, R. Taylor, M. Towler and J. van de Streek, J. Appl. Cryst. 39, 453-457, 2006. • OLEX2, Dolomanov, O. V.; Bourhis, L. J.; Gildea, R. J.; Howard, J. A. K.; Puschmann, H., (2009). J. Appl. Cryst., 42, 339-341. • R. W. W. Hooft et al. J. Appl. Cryst. (2008). 41. 96-103. • H. D. Flack, Acta Cryst. 1983, A39, 867-881. Using Chamber Electrophysiology Assay of CFTR Potentiation in CF Bronchial Epithelial Cells
Primary cystic fibrosis human bronchial epithelial (CF hBE) cells were expanded and cultured according to published methods (Neuberger et al., Ch. 4 of Cystic Fibrosis, Methods in Molecular Biology vol. 741, pp. 39-54 (2011)). Well-differentiated cells (>30 days at air/liquid interface) on Snapwell filters (Corning Costar, cat. no. 3801) were mounted in Ussing chambers (Physiologic Instruments, Inc., San Diego, CA). […] HEPES buffered physiological saline (composition (in mM): 137 NaCl, 4 KCl, 1 MgCl2, 1.8 CaCl2), 10 HEPES Na) was used in both apical and basolateral chambers. Chambers were bubbled with air to promote mixing and the voltage was clamped to zero. Amiloride (30 uM), forskolin (10 uM), test compound (4 increasing concentrations), and CFTRinh-172 (20 uM) were added sequentially with 20-25 minutes between additions. Short-circuit currents were acquired and analyzed using LabScribe2. Test compound responses were scaled relative to responses for DMSO (0%) and the maximal response of a positive control potentiator (100%).

[2] = molecular target: T2, recombinant F508del V470 CFTR in Fischer rat thyroid (FRT) cells (Homo sapiens, UniProt P13569, DEL508-508); assay: FRT ion flux assay of F508del CFTR potentiation; assay type: cell-based; conditions: FRT cells expressing F508del V470 CFTR, forskolin 20 uM, 27° C. pre-incubation
T2 construct: expressed in transfected cells
Summary of the method: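 FRT cells co-expressing F508del V470 CFTR and halide-sensitive YFP, temperature-corrected at 27° C for 16-24 h, then treated 30 min with compound plus 20 uM forskolin. Iodide addition quenches YFP, read after ~21 s; ratio scaled to DMSO (0%) and positive control potentiator (100%).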

T1 sequence (P13569 with tags, fused parts or gaps DEL508-508): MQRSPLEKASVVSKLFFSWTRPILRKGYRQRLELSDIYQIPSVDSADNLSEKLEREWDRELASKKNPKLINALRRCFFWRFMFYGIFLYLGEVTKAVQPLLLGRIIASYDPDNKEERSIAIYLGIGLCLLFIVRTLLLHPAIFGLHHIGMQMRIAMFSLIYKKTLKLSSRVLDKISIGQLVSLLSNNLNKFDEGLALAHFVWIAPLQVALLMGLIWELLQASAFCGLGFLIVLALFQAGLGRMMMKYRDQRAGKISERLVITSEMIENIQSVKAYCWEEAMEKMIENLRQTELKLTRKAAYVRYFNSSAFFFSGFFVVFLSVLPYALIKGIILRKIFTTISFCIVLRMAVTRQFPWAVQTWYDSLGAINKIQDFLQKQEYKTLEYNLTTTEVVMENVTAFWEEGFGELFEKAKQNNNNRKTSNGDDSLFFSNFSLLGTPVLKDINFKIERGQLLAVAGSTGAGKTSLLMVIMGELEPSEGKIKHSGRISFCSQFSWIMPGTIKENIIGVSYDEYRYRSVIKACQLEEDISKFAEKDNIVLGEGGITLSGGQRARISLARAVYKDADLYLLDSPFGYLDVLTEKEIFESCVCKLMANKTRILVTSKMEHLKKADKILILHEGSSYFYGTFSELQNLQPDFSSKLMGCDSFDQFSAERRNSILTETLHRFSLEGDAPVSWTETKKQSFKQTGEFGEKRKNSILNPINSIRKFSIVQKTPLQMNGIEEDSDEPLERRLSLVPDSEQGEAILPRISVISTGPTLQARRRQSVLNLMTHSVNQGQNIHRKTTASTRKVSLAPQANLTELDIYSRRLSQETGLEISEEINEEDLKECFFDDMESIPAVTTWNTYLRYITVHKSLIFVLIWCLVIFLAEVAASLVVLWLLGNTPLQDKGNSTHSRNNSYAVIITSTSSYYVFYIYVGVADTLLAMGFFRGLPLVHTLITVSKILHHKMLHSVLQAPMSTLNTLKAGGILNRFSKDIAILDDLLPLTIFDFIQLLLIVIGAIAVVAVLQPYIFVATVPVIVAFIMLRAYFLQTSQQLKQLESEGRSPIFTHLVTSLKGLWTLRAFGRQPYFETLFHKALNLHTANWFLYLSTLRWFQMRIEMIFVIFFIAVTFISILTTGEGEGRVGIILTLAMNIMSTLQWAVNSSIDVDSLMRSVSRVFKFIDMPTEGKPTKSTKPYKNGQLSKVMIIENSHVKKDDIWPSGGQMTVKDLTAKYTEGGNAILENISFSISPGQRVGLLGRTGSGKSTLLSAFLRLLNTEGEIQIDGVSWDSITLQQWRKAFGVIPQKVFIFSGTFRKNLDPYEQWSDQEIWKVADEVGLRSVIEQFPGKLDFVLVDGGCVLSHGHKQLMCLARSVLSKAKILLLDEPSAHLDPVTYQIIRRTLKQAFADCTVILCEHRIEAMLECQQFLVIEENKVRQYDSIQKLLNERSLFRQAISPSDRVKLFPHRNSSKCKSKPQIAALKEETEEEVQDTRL
T2 sequence (P13569 with tags, fused parts or gaps DEL508-508): as above

Row | EC50 [1] | EC50 [2] | SMILES
1 | 26.7 nM | 29.3 nM | CCC(c1cn(-c2ccccc2F)nn1)n1cc(C2CC2)c2c(N)ncnc21 (single isomer, unassigned; enantiomer 1) [Example 173, (−) 5-Cyclopropyl-7-{1-[1-(2-fluorophenyl)-1H-1,2,3-triazol-4-yl]propyl}-7H-pyrrolo[2,3-d]pyrimidin-4-amine, enantiomer 1]
2 | 61.6 nM | 34.1 nM | CCC(c1cn(-c2ccccc2F)nn1)n1cc(-c2cncnc2OC)c2c(N)ncnc21 (stereo not shown) [Example 244, 7-{1-[1-(2-Fluorophenyl)-1H-1,2,3-triazol-4-yl]propyl}-5-[4-methoxypyrimidin-5-yl]-7H-pyrrolo[2,3-d]pyrimidin-4-amine]
3 | 297 nM | 232 nM | CCC(c1cn(-c2ccccc2F)nn1)n1cc(-c2cncnc2OC)c2c(N)nc(C)nc21 (stereo not shown) [Example 302, 7-{1-[1-(2-Fluorophenyl)-1H-1,2,3-triazol-4-yl]propyl}-5-(4-methoxypyrimidin-5-yl)-2-methyl-7H-pyrrolo[2,3-d]pyrimidin-4-amine]
4 | 1640 nM | 2740 nM | CCC(c1cn(-c2ccccc2F)nn1)n1cc(-c2cncnc2OC)c2c(N)nc(C)nc21 (single isomer, unassigned; (+)) [Example 303, (+) 7-{1-[1-(2-Fluorophenyl)-1H-1,2,3-triazol-4-yl]propyl}-5-(4-methoxypyrimidin-5-yl)-2-methyl-7H-pyrrolo[2,3-d]pyrimidin-4-amine]
5 | 397 nM | 2990 nM | CNc1ncnc2c1c(-c1ccc(Cl)cc1)cn2C(C)c1cn(-c2ccccc2F)nn1 (stereo not shown) [Example 318, 5-(4-Chlorophenyl)-7-{1-[1-(2-fluorophenyl)-1H-1,2,3-triazol-4-yl]ethyl}-N-methyl-7H-pyrrolo[2,3-d]pyrimidin-4-amine]
6 | 77.6 nM | 203 nM | CCC(c1cn(-c2cc(F)ccc2F)nn1)n1cc(-c2cc(F)cnc2OC)c2c(N)ncnc21 (single isomer, unassigned; enantiomer 2) [Example 172, 7-{1-[1-(2,5-Difluorophenyl)-1H-1,2,3-triazol-4-yl]propyl}-5-(5-fluoro-2-methoxypyridin-3-yl)-7H-pyrrolo[2,3-d]pyrimidin-4-amine, enantiomer 2]
7 | 47.7 nM | 451 nM | COc1ncccc1-c1cn(Cc2cnn(-c3ccc(C(F)F)cc3)c2)c2ncnc(N)c12 [Example 270, 7-({1-[4-(Difluoromethyl)phenyl]-1H-pyrazol-4-yl}methyl)-5-(2-methoxypyridin-3-yl)-7H-pyrrolo[2,3-d]pyrimidin-4-amine]
8 | 127 nM | 2670 nM | Nc1ncnc2c1c(-c1ccc(Cl)cc1)cn2Cc1cc(C2CC2)no1 [Example 280, 5-(4-Chlorophenyl)-7-[(3-cyclopropyl-1,2-oxazol-5-yl)methyl]-7H-pyrrolo[2,3-d]pyrimidin-4-amine]
9 | 25.9 nM | 109 nM | CCC(c1cn(-c2ccccc2F)nn1)n1cc(-c2ccc(Cl)cc2)c2c(N)ncnc21 (stereo not shown) [Example 211, 5-(4-Chlorophenyl)-7-{1-[1-(2-fluorophenyl)-1H-1,2,3-triazol-4-yl]propyl}-7H-pyrrolo[2,3-d]pyrimidin-4-amine]
10 | 38.8 nM | 56 nM | CCC(c1cn(-c2ccccc2F)nn1)n1cc(C2CC2)c2c(N)ncnc21 (stereo not shown) [Example 236, 5-cyclopropyl-7-{1-[1-(2-fluorophenyl)-1H-1,2,3-triazol-4-yl]propyl}-7H-pyrrolo[2,3-d]pyrimidin-4-amine]
11 | 12.2 nM | 68.2 nM | CC(c1cn(-c2ccccc2F)nn1)n1cc(-c2ccc(OC3CC3)cc2)c2c(N)ncnc21 (stereo not shown) [Example 212, 5-[4-(Cyclopropyloxy)phenyl]-7-{1-[1-(2-fluorophenyl)-1H-1,2,3-triazol-4-yl]ethyl}-7H-pyrrolo[2,3-d]pyrimidin-4-amine]

More lines, now with the values behind:

Row | SMILES | EC50 [1] | EC50 [2]
12 | CCC(c1cn(-c2ccc(F)c(F)c2)nn1)n1cc(-c2cnc(C(F)(F)F)nc2)c2c(N)ncnc21 (single isomer, unassigned; enantiomer 1) [Example 153, 7-{1-[1-(3,4-Difluorophenyl)-1H-1,2,3-triazol-4-yl]propyl}-5-[2-(trifluoromethyl)pyrimidin-5-yl]-7H-pyrrolo[2,3-d]pyrimidin-4-amine, enantiomer 1] | 19.8 nM | 59 nM
13 | CCC(c1cn(-c2cccc(F)c2F)nn1)n1c(C#N)c(-c2cnc(C(F)(F)F)nc2)c2c(N)ncnc21 (single isomer, unassigned) [Example 18, 4-amino-7-{1-[1-(2,3-difluorophenyl)-1H-1,2,3-triazol-4-yl]propyl}-5-[2-(trifluoromethyl)pyrimidin-5-yl]-7H-pyrrolo[2,3-d] pyrimidine-6-carbonitrile] | 12.5 nM | 10.8 nM
14 | CCC(c1cn(-c2ccccc2F)nn1)n1c(C#N)c(-c2ccc(OC(F)F)nc2)c2c(N)ncnc21 (single isomer, unassigned) [Example 24, 4-Amino-5-[6-(difluoromethoxy)pyridin-3-yl]-7-{1-[1-(2-fluorophenyl)-1H-1,2,3-triazol-4-yl]propyl}-7H-pyrrolo[2,3-d]pyrimidine-6-carbonitrile] | 30 nM | 21.5 nM
15 | Nc1ncnc2c1c(-c1ccc(OC3CC3)cc1)cn2Cc1cn(-c2ccccc2F)nn1 [Example 77, 5-[4-(Cyclopropyloxy)phenyl]-7-{[1-(2-fluorophenyl)-1H-1,2,3-triazol-4-yl]methyl}-7H-pyrrolo[2,3-d]pyrimidin-4-amine] | 17.4 nM | 62.5 nM
16 | COc1ccc(-c2cn(Cc3cn(-c4ccccc4F)nn3)c3ncnc(N)c23)cc1 [Example 85, 7-{[1-(2-Fluorophenyl)-1H-1,2,3-triazol-4-yl]methyl}-5-(4-methoxyphenyl)-7H-pyrrolo[2,3-d]pyrimidin-4-amine] | 56.9 nM | 73.4 nM
17 | CC(c1cc(-c2ccccc2F)no1)n1cc(-c2ccc(N(C)C)cc2)c2c(N)ncnc21 (stereo not shown) [Example 105, 5-[4-(Dimethylamino)phenyl]-7-{1-[3-(2-fluorophenyl)-1,2-oxazol-5-yl]ethyl}-7H-pyrrolo[2,3-d]pyrimidin-4-amine] | 75 nM | 374 nM
18 | CC(c1cnn(-c2ccc(F)cc2F)c1)n1c(C#N)c(-c2cnc(C(F)(F)F)nc2)c2c(N)ncnc21 (single isomer, unassigned) [Example 7, 4-Amino-7-{1-[1-(2,4-difluorophenyl)-1H-pyrazol-4-yl]ethyl}-5-[2-(trifluoromethyl)pyrimidin-5-yl]-7H-pyrrolo[2,3-d] pyrimidine-6-carbonitrile] | 1.84 nM | 2.76 nM
19 | CCC(c1cn(-c2ccc(F)c(F)c2)nn1)n1cc(-c2cncnc2OC)c2c(N)ncnc21 (single isomer, unassigned; enantiomer 2) [Example 152, (−) 7-{1-[1-(3,4-Difluorophenyl)-1H-1,2,3-triazol-4-yl]propyl}-5-(4-methoxypyrimidin-5-yl)-7H-pyrrolo[2,3-d]pyrimidin-4-amine, enantiomer 2] | 445 nM | 182 nM
20 | CC(c1cn(-c2ccccc2F)nn1)n1cc(-c2ccc(C#N)c(F)c2)c2c(N)ncnc21 (single isomer, unassigned; enantiomer 1) [Example 115, 4-(4-Amino-7-{1-[1-(2-fluorophenyl)-1H-1,2,3-triazol-4-yl]ethyl}-7H-pyrrolo[2,3-d]pyrimidin-5-yl)-2-fluorobenzonitrile, enantiomer 1] | 614 nM | 566 nM
21 | CC(c1cn(-c2ccccc2F)nn1)n1cc(C2CC2)c2c(N)ncnc21 (single isomer, unassigned) [Example 109, 5-Cyclopropyl-7-{1-[1-(2-fluorophenyl)-1H-1,2,3-triazol-4-yl]ethyl}-7H-pyrrolo[2,3-d]pyrimidin-4-amine] | 68.6 nM | 36.5 nM
22 | CC(c1cn(-c2ccccc2F)nn1)n1cc(-c2cc(F)cc(Cl)c2)c2c(N)ncnc21 (stereo not shown) [Example 99, 5-(3-Chloro-5-fluorophenyl)-7-{1-[1-(2-fluorophenyl)-1H-1,2,3-triazol-4-yl]ethyl}-7H-pyrrolo[2,3-d]pyrimidin-4-amine] | 35.9 nM | 50 nM
23 | CC(c1cn(-c2ccccc2F)nn1)n1cc(C2CCC2)c2c(N)ncnc21 (single isomer, unassigned) [Example 110, 5-Cyclobutyl-7-{1-[1-(2-fluorophenyl)-1H-1,2,3-triazol-4-yl]ethyl}-7H-pyrrolo[2,3-d]pyrimidin-4-amine] | 6.21 nM | 2.65 nM
